Results reported in US20260356957A1, “METHODS FOR TREATMENT OF NON-SMALL CELL LUNG CANCER (NSCLC)” (Janssen Biotech, Inc., priority 2023, published 2026).
Marks after values point to notes of the source that are not given here.

Assay: MARIPOSA Phase 3, adverse events
Format: in vivo, human
Text: • 1. […] Incidence and Severity of Adverse Events (AEs) [Time Frame: Up to approximately 60 months]. Incidence and severity of treatment emergent adverse events (TEAEs) will be reported. Any adverse event occurring at or after the initial administration of study treatment through the day of last dose plus 30 days, or until the start of subsequent anticancer therapy (if earlier), is considered to be treatment emergent. • 8. Number of Participants with Clinical Laboratory Abnormalities [Time Frame: Up to approximately 60 months]. Number of participants with clinical laboratory abnormalities (serum chemistry, hematology, blood coagulation, and urine samples) will be reported. • 9. Number of Participants with Vital Signs Abnormalities [Time Frame: Up to approximately 60 months]. Number of participants with vital signs abnormalities (temperature, heart rate, respiratory rate, oxygen saturation, blood pressure) will be reported. • 10. Number of Participants with Physical Examination Abnormalities [Time Frame: Up to approximately 60 months]. Number of participants with physical examination abnormalities will be reported. • 11. […] The NSCLC-SAQ contains 7 items that assess cough, pain, dyspnea, fatigue, and poor appetite over a 7-day recall period. Each multi-item scale and individual item will be summarized using count and percent by visit. • 15. […] EORTC-QLQ-C30 is a core 30-item questionnaire for evaluating the health-related quality of life (HRQOL) of participants participating in cancer clinical studies. • 16.

[1] = AE of interest, grouped preferred terms
[2] = Grade 5 AE, deemed treatment-related
[3] = TEAE leading to discontinuations of any study agent
[4] = TEAE leading to dose reductions of any study agent

## C=CC(=O)Nc1cc(Nc2nccc(-c3cn(C)c4ccccc34)n2)c(OC)cc1N(C)CCN(C)C [Osimertinib]
AE of interest
  Venous thromboembolism, No. of days to first onset, median (range): 194 (10-675) days
[1]
  Any venous thromboembolism event, No. of patients (%): 39 (9) no. (%)
  Rash, Duration of event, median no. of days (range): 51 (1-625) days
  Rash, No. of days to first onset, median (range): 29 (1-799) days
  Rash, No. of events, any grade: 238
  Rash, No. of patients (%): 210 (49) no. (%)
AE, All grades
  Anemia: 91 (21) no. (%)
  Asthenia: 46 (11) no. (%)
  COVID-19: 103 (24) no. (%)
  Constipation: 55 (13) no. (%)
  Cough: 88 (21) no. (%)
  Decreased appetite: 76 (18) no. (%)
  Dermatitis acneiform: 55 (13) no. (%)
  Diarrhea: 190 (44) no. (%)
  Dry skin: 60 (14) no. (%)
  Dyspnea: 68 (16) no. (%)
  Fatigue: 42 (10) no. (%)
  Hypoalbuminemia: 26 (6) no. (%)
  Hypocalcemia: 35 (8) no. (%)
  Increased alanine aminotransferase: 57 (13) no. (%)
  Increased aspartate aminotransferase: 58 (14) no. (%)
  Infusion-related reaction: 0 no. (%)
  Leukopenia: 66 (15) no. (%)
  Muscle spasms: 32 (7) no. (%)
  Nausea: 58 (14) no. (%)
  Pain in extremity: 22 (5) no. (%)
  Paronychia: 121 (28) no. (%)
  Peripheral edema: 24 (6) no. (%)
  Pruritus: 73 (17) no. (%)
  Pulmonary embolism: 20 (5) no. (%)
  Rash: 131 (31) no. (%)
  Stomatitis: 90 (21) no. (%)
  Thrombocytopenia: 84 (20) no. (%)
AE, Grade ≥3
  Anemia: 7 (2) no. (%)
  Asthenia: 4 (1) no. (%)
  COVID-19: 9 (2) no. (%)
  Constipation: 0 no. (%)
  Cough: 0 no. (%)
  Decreased appetite: 6 (1) no. (%)
  Dermatitis acneiform: 0 no. (%)
  Diarrhea: 3 (1) no. (%)
  Dry skin: 1 (0.2) no. (%)
  Dyspnea: 17 (4) no. (%)
  Fatigue: 4 (1) no. (%)
  Hypoalbuminemia: 0 no. (%)
  Hypocalcemia: 0 no. (%)
  Increased alanine aminotransferase: 8 (2) no. (%)
  Increased aspartate aminotransferase: 5 (1) no. (%)
  Infusion-related reaction: 0 no. (%)
  Leukopenia: 0 no. (%)
  Muscle spasms: 0 no. (%)
  Nausea: 1 (0.2) no. (%)
  Pain in extremity: 0 no. (%)
  Paronychia: 2 (0.5) no. (%)
  Peripheral edema: 0 no. (%)
  Pruritus: 1 (0.2) no. (%)
  Pulmonary embolism: 10 (2) no. (%)
  Rash: 3 (1) no. (%)
  Stomatitis: 1 (0.2) no. (%)
  Thrombocytopenia: 5 (1) no. (%)
Grade 5 AE
  Acinetobacter sepsis: 0 no. (%)
  Acute respiratory distress syndrome: 0 no. (%)
  Arteriosclerosis coronary artery: 0 no. (%)
  COVID-19: 3 (1) no. (%)
  COVID-19 pneumonia: 0 no. (%)
  Cardiac failure: 1 (0.2) no. (%)
  Cardiopulmonary failure: 0 no. (%)
  Cerebral hemorrhage: 1 (0.2) no. (%)
  Cerebral infarction: 0 no. (%)
  Cerebrovascular accident: 1 (0.2) no. (%)
  Circulatory collapse: 0 no. (%)
  Death: 2 (0.5) no. (%)
  Dyspnea: 3 (1) no. (%)
  Hemoptysis: 1 (0.2) no. (%)
  Ischemic cerebral infarction: 0 no. (%)
  Ketoacidosis: 1 (0.2) no. (%)
  Lower respiratory tract infection: 1 (0.2) no. (%)
  Metabolic acidosis: 1 (0.2) no. (%)
  Myocardial infarction: 0 no. (%)
  Myocardial rupture: 0 no. (%)
  Pericardial effusion: 1 (0.2) no. (%)
  Pleural effusion: 1 (0.2) no. (%)
  Pneumonia: 4 (1) no. (%)
  Pneumonia aspiration: 1 (0.2) no. (%)
  Pulmonary embolism: 2 (0.5) no. (%)
  Respiratory failure: 2 (0.5) no. (%)
  Respiratory tract infection: 1 (0.2) no. (%)
  Sepsis: 1 (0.2) no. (%)
  Septic shock: 1 (0.2) no. (%)
  Sudden death: 1 (0.2) no. (%)
  Urosepsis: 0 no. (%)
[2]
  Coronary artery disease: 0 no. (%)
  Interstitial lung disease: 2 (0.5)§ no. (%)
  Pneumonitis: 0 no. (%)
[3]
  Asthenia: 1 (0.2) no. (%)
  Dermatitis acneiform: 0 no. (%)
  Hypoalbuminemia: 0 no. (%)
  Infusion related reaction: 0 no. (%)
  Interstitial lung disease: 4 (1) no. (%)
  Paronychia: 0 no. (%)
  Peripheral edema: 0 no. (%)
  Pneumonia: 3 (1) no. (%)
  Pneumonitis: 7 (2) no. (%)
  Pulmonary embolism: 2 (0.5) no. (%)
  Rash: 0 no. (%)
[4]
  Dermatitis acneiform: 0 no. (%)
  Folliculitis: 0 no. (%)
  Hypoalbuminemia: 0 no. (%)
  Increased alanine aminotransferase: 0 no. (%)
  Increased aspartate aminotransferase: 0 no. (%)
  Mucosal inflammation: 0 no. (%)
  Neuropathy peripheral: 0 no. (%)
  Paresthesia: 0 no. (%)
  Paronychia: 1 (0.2) no. (%)
  Peripheral edema: 0 no. (%)
  Peripheral sensory neuropathy: 0 no. (%)
  Rash: 2 (0.5) no. (%)
  Rash maculo-papular: 0 no. (%)
  Rash pustular: 0 no. (%)
